Assay results taken from PubChem BioAssay (NCI).
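Step 1: Grow cells in 96-well plates. Step 2: Expose to compound for 48 hours at 5 concentrations. Step 3: Interpolate endpoints linearly; if unreached, use highest concentration. At the TGI there is no net growth.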

Legend:
Assay in all cases: NCI tumour cell line growth inhibition, 48 h
[1] = system: 786-0 renal
[2] = system: A498 renal
[3] = system: A549 NSCLC
[4] = system: ACHN renal
[5] = system: CCRF-CEM leukemia
[6] = system: COLO 205 colon
[7] = system: DU-145 prostate
[8] = system: EKVX NSCLC
[9] = system: HCC-2998 colon
[10] = system: HCT-116 colon
[11] = system: HCT-15 colon
[12] = system: HL-60(TB) leukemia
[13] = system: HOP-62 NSCLC
[14] = system: HOP-92 NSCLC
[15] = system: HS 578T breast
[16] = system: HT29 colon
[17] = system: IGROV1 ovarian
[18] = system: K-562 leukemia
[19] = system: KM12 colon
[20] = system: LOX IMVI melanoma
[21] = system: M14 melanoma
[22] = system: MALME-3M melanoma
[23] = system: MCF7 breast
[24] = system: MDA-MB-231 breast
[25] = system: MDA-MB-435
[26] = system: MDA-N
[27] = system: MOLT-4 leukemia
[28] = system: NCI-H226 lung
[29] = system: NCI-H23 lung
[30] = system: NCI-H460 lung
[31] = system: NCI-H522 lung
[32] = system: NCI/ADR-RES ovarian
[33] = system: OVCAR-3 ovarian
[34] = system: OVCAR-5 ovarian
[35] = system: OVCAR-8 ovarian
[36] = system: PC-3 prostate
[37] = system: RPMI-8226 leukemia
[38] = system: RXF 393 renal
[39] = system: SF-268 CNS
[40] = system: SF-295 CNS
[41] = system: SF-539 CNS
[42] = system: SK-MEL-28 melanoma
[43] = system: SK-MEL-5 melanoma
[44] = system: SN12C renal
[45] = system: SNB-19 CNS
[46] = system: SNB-75 CNS
[47] = system: SR leukemia
[48] = system: SW-620 colon
[49] = system: T-47D breast
[50] = system: U251 CNS
[51] = system: UACC-257 melanoma
[52] = system: UO-31 renal
[53] = system: BT-549 breast
[54] = system: CAKI-1 renal
[55] = system: OVCAR-4 ovarian
[56] = system: SK-OV-3 ovarian
[57] = system: TK-10 renal
[58] = system: UACC-62 melanoma
[59] = system: SK-MEL-2 melanoma

COC(=O)C1=Cc2cc(OC)c(O)cc2[C@@H](c2ccc(O)c(OC)c2)[C@@H]1C(=O)OC
TGI [1]: > 100 µM | TGI [2]: > 100 µM | TGI [3]: > 100 µM | TGI [4]: > 100 µM | TGI [5]: > 100 µM | TGI [6]: > 100 µM | TGI [7]: > 100 µM | TGI [8]: > 100 µM | TGI [9]: > 100 µM | TGI [10]: > 100 µM | TGI [11]: > 100 µM | TGI [12]: > 100 µM | TGI [13]: > 100 µM | TGI [14]: > 100 µM | TGI [15]: > 100 µM | TGI [16]: > 100 µM | TGI [17]: > 100 µM | TGI [18]: > 100 µM | TGI [19]: > 100 µM | TGI [20]: > 100 µM | TGI [21]: > 100 µM | TGI [22]: > 100 µM | TGI [23]: > 100 µM | TGI [24]: > 100 µM | TGI [25]: > 100 µM | TGI [26]: > 100 µM | TGI [27]: > 100 µM | TGI [28]: > 100 µM | TGI [29]: > 100 µM | TGI [30]: > 100 µM | TGI [31]: > 100 µM | TGI [32]: > 100 µM | TGI [33]: > 100 µM | TGI [34]: > 100 µM | TGI [35]: > 100 µM | TGI [36]: > 100 µM | TGI [37]: > 100 µM | TGI [38]: > 100 µM | TGI [39]: > 100 µM | TGI [40]: > 100 µM | TGI [41]: > 100 µM | TGI [42]: > 100 µM | TGI [43]: > 100 µM | TGI [44]: > 100 µM | TGI [45]: > 100 µM | TGI [46]: > 100 µM | TGI [47]: > 100 µM | TGI [48]: > 100 µM | TGI [49]: > 100 µM | TGI [50]: > 100 µM | TGI [51]: > 100 µM | TGI [52]: > 100 µM

N#Cc1c(Cl)/c(=C/O)c(=O)n2c1nc1ccccc12
TGI [1]: > 100 µM | TGI [2]: 72.1 µM | TGI [3]: > 100 µM | TGI [4]: > 100 µM | TGI [53]: > 100 µM | TGI [54]: > 100 µM | TGI [5]: > 100 µM | TGI [6]: > 100 µM | TGI [7]: > 100 µM | TGI [8]: > 100 µM | TGI [9]: > 100 µM | TGI [10]: > 100 µM | TGI [11]: > 100 µM | TGI [12]: 89.6 µM | TGI [13]: > 100 µM | TGI [14]: 68.1 µM | TGI [15]: 94.7 µM | TGI [16]: > 100 µM | TGI [17]: > 100 µM | TGI [18]: > 100 µM | TGI [19]: > 100 µM | TGI [20]: > 100 µM | TGI [21]: > 100 µM | TGI [22]: > 100 µM | TGI [23]: > 100 µM | TGI [24]: > 100 µM | TGI [25]: > 100 µM | TGI [26]: > 100 µM | TGI [27]: 96.5 µM | TGI [28]: 52 µM | TGI [29]: > 100 µM | TGI [30]: > 100 µM | TGI [31]: > 100 µM | TGI [32]: > 100 µM | TGI [33]: 99.5 µM | TGI [55]: > 100 µM | TGI [34]: 91.7 µM | TGI [35]: > 100 µM | TGI [36]: > 100 µM | TGI [37]: > 100 µM | TGI [39]: > 100 µM | TGI [40]: > 100 µM | TGI [41]: > 100 µM | TGI [42]: > 100 µM | TGI [43]: > 100 µM | TGI [56]: > 100 µM | TGI [44]: > 100 µM | TGI [45]: > 100 µM | TGI [46]: > 100 µM | TGI [48]: > 100 µM | TGI [57]: > 100 µM | TGI [50]: > 100 µM | TGI [51]: > 100 µM | TGI [58]: > 100 µM | TGI [52]: > 100 µM

Cc1cc(NCCCCCCCCCC[n+]2c(C)cc(N)c3ccccc32)c2ccccc2n1
TGI [1]: 15.1 µM | TGI [2]: 15.4 µM | TGI [3]: 61.8 µM | TGI [4]: 10.1 µM | TGI [53]: > 100 µM | TGI [54]: 30.7 µM | TGI [5]: 7.43 µM | TGI [6]: 1.22 µM | TGI [7]: 22.3 µM | TGI [8]: > 100 µM | TGI [9]: 6.01 µM | TGI [10]: 11.7 µM | TGI [11]: 18.4 µM | TGI [13]: 30.1 µM | TGI [14]: 7.62 µM | TGI [16]: > 100 µM | TGI [17]: 17.3 µM | TGI [18]: 2.36 µM | TGI [19]: 2.4 µM | TGI [21]: 12 µM | TGI [22]: 18.5 µM | TGI [23]: > 100 µM | TGI [24]: 5.61 µM | TGI [25]: 5.86 µM | TGI [26]: 3.61 µM | TGI [27]: 5.23 µM | TGI [28]: > 100 µM | TGI [29]: 6.54 µM | TGI [31]: > 100 µM | TGI [32]: 74.8 µM | TGI [33]: 65.9 µM | TGI [55]: > 100 µM | TGI [34]: 24.7 µM | TGI [35]: 15.8 µM | TGI [36]: 13.7 µM | TGI [37]: 2.28 µM | TGI [38]: > 100 µM | TGI [39]: > 39 µM | TGI [40]: 13.6 µM | TGI [41]: > 100 µM | TGI [59]: 7.29 µM | TGI [42]: 3.82 µM | TGI [43]: 0.695 µM | TGI [56]: 12.9 µM | TGI [44]: 5.85 µM | TGI [46]: 7.71 µM | TGI [48]: 21.2 µM | TGI [49]: 12.3 µM | TGI [57]: 18.3 µM | TGI [50]: 4.3 µM | TGI [58]: 4.17 µM | TGI [52]: 26.4 µM

COc1ccc(/C=C2\CCCCCC2=O)cc1
TGI [1]: > 100 µM | TGI [2]: > 100 µM | TGI [3]: > 100 µM | TGI [4]: > 100 µM | TGI [53]: > 100 µM | TGI [54]: > 100 µM | TGI [5]: > 100 µM | TGI [6]: > 100 µM | TGI [7]: > 100 µM | TGI [8]: > 100 µM | TGI [9]: > 100 µM | TGI [10]: > 100 µM | TGI [11]: > 100 µM | TGI [13]: > 100 µM | TGI [14]: > 100 µM | TGI [16]: > 100 µM | TGI [17]: > 100 µM | TGI [18]: > 100 µM | TGI [19]: > 100 µM | TGI [20]: > 100 µM | TGI [21]: > 100 µM | TGI [22]: > 100 µM | TGI [23]: > 100 µM | TGI [24]: > 100 µM | TGI [25]: > 100 µM | TGI [26]: > 100 µM | TGI [27]: > 100 µM | TGI [28]: > 100 µM | TGI [29]: > 100 µM | TGI [30]: > 100 µM | TGI [31]: > 100 µM | TGI [32]: > 100 µM | TGI [33]: > 100 µM | TGI [55]: > 100 µM | TGI [34]: > 100 µM | TGI [35]: > 100 µM | TGI [36]: > 100 µM | TGI [37]: > 100 µM | TGI [38]: > 100 µM | TGI [39]: > 100 µM | TGI [40]: > 100 µM | TGI [41]: > 100 µM | TGI [59]: > 100 µM | TGI [42]: > 100 µM | TGI [43]: > 100 µM | TGI [56]: > 100 µM | TGI [44]: > 100 µM | TGI [45]: > 100 µM | TGI [47]: > 100 µM | TGI [48]: > 100 µM | TGI [49]: > 100 µM | TGI [57]: > 100 µM | TGI [50]: > 100 µM | TGI [51]: > 100 µM | TGI [58]: > 100 µM | TGI [52]: > 100 µM
